In ChEMBL document CHEMBL1138149, “Optimization of a privileged structure leading to potent and selective human melanocortin subtype-4 receptor ligands” (Bioorg Med Chem Lett, 2006):

Tests used:
Melanocortin receptor 5 [1] = biological target: T1, Melanocortin receptor 5 (Homo sapiens, UniProt P33032); assay: Activity against human MC5R by cAMP accumulation; format: functional
Melanocortin receptor 5 [2] = biological target: T1, Melanocortin receptor 5; assay: Activity against human MC5R by percentage of cAMP accumulation at 10 uM; format: functional
Melanocortin receptor 4 [3] = biological target: T2, Melanocortin receptor 4 (Homo sapiens, UniProt P32245); assay: Activity against human MC4R by cAMP accumulation; format: functional
T2 sequence (P32245 whole entry): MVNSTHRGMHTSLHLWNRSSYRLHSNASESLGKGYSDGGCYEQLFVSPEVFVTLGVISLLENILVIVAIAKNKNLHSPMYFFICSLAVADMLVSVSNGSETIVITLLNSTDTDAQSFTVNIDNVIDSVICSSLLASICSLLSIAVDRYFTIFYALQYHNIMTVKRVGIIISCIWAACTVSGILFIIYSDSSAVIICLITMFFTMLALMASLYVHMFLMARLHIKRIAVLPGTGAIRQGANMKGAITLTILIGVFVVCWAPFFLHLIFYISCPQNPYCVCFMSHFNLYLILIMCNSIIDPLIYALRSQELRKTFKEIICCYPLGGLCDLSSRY

Melanocortin receptor 5 [4] = biological target: T1, Melanocortin receptor 5; assay: Displacement of [125I]NDP-alpha-MSH from human MC5R expressed in CHO cells; format: cell-based
[5] = biological target: T3, Melanocyte-stimulating hormone receptor (Homo sapiens, UniProt Q01726); assay: Activity against human MC1R by percentage of cAMP accumulation at 10 uM; format: functional
Target sequence in this assay (Q01726 whole entry, looked up): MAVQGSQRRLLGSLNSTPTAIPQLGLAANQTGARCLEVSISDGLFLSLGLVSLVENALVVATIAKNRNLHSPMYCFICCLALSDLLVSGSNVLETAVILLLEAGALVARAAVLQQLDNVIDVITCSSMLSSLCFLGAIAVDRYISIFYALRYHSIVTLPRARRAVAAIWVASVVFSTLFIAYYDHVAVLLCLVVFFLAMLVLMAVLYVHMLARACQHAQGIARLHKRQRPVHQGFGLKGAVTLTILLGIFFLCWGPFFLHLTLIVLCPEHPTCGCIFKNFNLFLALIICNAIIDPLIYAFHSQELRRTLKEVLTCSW

Melanocortin receptor 4 [6] = biological target: T2, Melanocortin receptor 4; assay: Activity against human MC4R by percentage of cAMP accumulation at 10 uM; format: functional
[7] = biological target: T3, Melanocyte-stimulating hormone receptor; assay: Displacement of [125I]NDP-alpha-MSH from human MC1BR expressed in CHO cells; format: cell-based
Target sequence in this assay (Q01726 whole entry): as the sequence (Q01726 whole entry, looked up) above

Melanocortin receptor 3 [8] = biological target: T4, Melanocortin receptor 3 (Homo sapiens, UniProt P41968); assay: Displacement of [125I]NDP-alpha-MSH from human MC3R expressed in CHO cells; format: cell-based
T4 sequence (P41968 whole entry): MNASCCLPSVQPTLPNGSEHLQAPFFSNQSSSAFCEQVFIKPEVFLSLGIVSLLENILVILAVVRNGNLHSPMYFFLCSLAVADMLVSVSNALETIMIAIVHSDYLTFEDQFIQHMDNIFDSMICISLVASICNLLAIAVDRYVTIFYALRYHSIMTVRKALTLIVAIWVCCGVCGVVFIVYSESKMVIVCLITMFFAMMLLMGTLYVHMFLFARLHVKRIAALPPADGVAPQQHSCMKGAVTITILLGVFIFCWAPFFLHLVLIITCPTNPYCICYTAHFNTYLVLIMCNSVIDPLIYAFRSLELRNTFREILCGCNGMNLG

[9] = biological target: T3, Melanocyte-stimulating hormone receptor; assay: Activity against human MC1BR by cAMP accumulation; format: functional
Target sequence in this assay (Q01726 whole entry): as the sequence (Q01726 whole entry, looked up) above

Melanocortin receptor 3 [10] = biological target: T4, Melanocortin receptor 3; assay: Activity against human MC3R by percentage of cAMP accumulation at 10 uM; format: functional
Melanocortin receptor 4 [11] = biological target: T2, Melanocortin receptor 4; assay: Displacement of [125I]NDP-alpha-MSH from human MC4R expressed in CHO cells; format: cell-based
Melanocortin receptor 3 [12] = biological target: T4, Melanocortin receptor 3; assay: Activity against human MC3R by cAMP accumulation; format: functional

T1 sequence (P33032 whole entry): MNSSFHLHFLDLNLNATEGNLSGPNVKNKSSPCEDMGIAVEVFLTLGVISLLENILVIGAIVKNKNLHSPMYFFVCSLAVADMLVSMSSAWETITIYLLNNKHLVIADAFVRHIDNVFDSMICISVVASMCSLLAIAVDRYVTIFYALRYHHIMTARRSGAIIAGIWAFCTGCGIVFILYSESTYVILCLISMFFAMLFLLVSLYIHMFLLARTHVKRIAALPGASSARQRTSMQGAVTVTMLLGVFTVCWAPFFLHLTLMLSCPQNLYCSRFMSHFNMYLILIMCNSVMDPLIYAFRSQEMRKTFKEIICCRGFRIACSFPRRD

| EC50 (Melanocortin receptor 5 [1]) | %max (Melanocortin receptor 5 [2]) | EC50 (Melanocortin receptor 4 [3]) | IC50 (Melanocortin receptor 5 [4]) | %max [5] | %max (Melanocortin receptor 4 [6]) | IC50 [7] | IC50 (Melanocortin receptor 3 [8]) | EC50 [9] | %max (Melanocortin receptor 3 [10]) | IC50 (Melanocortin receptor 4 [11]) | EC50 (Melanocortin receptor 3 [12]) | Structure (SMILES) |
| --- | --- | --- | --- | --- | --- | --- | --- | --- | --- | --- | --- | --- |
| 850 nM | 39% | 5.8 nM | 190 nM | 27% | 74% | 1200 nM | 760 nM | 460 nM | 18% | 0.62 nM | 450 nM | CC1(C)CCN(CC2(C3CCCCC3)CCN(C(=O)[C@@H](Cc3ccc(Cl)cc3)NC(=O)[C@H]3Cc4ccccc4CN3)CC2)S1(=O)=O |
| 460 nM | 63% | 16 nM | 160 nM | 43% | 88% | 1800 nM | 660 nM | 950 nM | 24% | 4.3 nM | 1200 nM | CN1CCN(CC2(C3CCCCC3)CCN(C(=O)[C@@H](Cc3ccc(Cl)cc3)NC(=O)[C@H]3Cc4ccccc4CN3)CC2)C1=O |
| 400 nM | 51% | 1.3 nM | 110 nM | 40% | 68% | 1700 nM | 210 nM | 1300 nM | 15% | 1.3 nM | 370 nM | C[C@@H]1COC(=O)N1CC1(C2CCCCC2)CCN(C(=O)[C@@H](Cc2ccc(Cl)cc2)NC(=O)[C@H]2Cc3ccccc3CN2)CC1 |
| 400 nM | 53% | 8.6 nM | 220 nM | 72% | 90% | 2400 nM | 840 nM | 2100 nM | 19% | 4.5 nM | 640 nM | C[C@H]1COC(=O)N1CC1(C2CCCCC2)CCN(C(=O)[C@@H](Cc2ccc(Cl)cc2)NC(=O)[C@H]2Cc3ccccc3CN2)CC1 |
| 620 nM | 36% | 6.1 nM | 170 nM | 48% | 68% | 2400 nM | 490 nM | 2600 nM | 15% | 4.6 nM | 990 nM | O=C(N[C@H](Cc1ccc(Cl)cc1)C(=O)N1CCC(CN2C(=O)OCC23CC3)(C2CCCCC2)CC1)[C@H]1Cc2ccccc2CN1 |
| 1200 nM | 32% | 15 nM | 210 nM | 25% | 65% | 2100 nM | 400 nM | 1700 nM | 6% | 7.9 nM |  | O=C(N[C@H](Cc1ccc(Cl)cc1)C(=O)N1CCC(CN2C(=O)OCC23CCC3)(C2CCCCC2)CC1)[C@H]1Cc2ccccc2CN1 |
| 340 nM | 38% | 2.4 nM | 80 nM | 35% | 82% | 1100 nM | 230 nM | 550 nM | 6% | 0.8 nM |  | CC1(C)COC(=O)N1CC1(C2CCCCC2)CCN(C(=O)[C@@H](Cc2ccc(Cl)cc2)NC(=O)[C@H]2Cc3ccccc3CN2)CC1 |
|  | 61% |  |  | 95% |  |  |  |  | 32% |  |  | O=C(N[C@H](Cc1ccc(Cl)cc1)C(=O)N1CCC(Cn2cncn2)(C2CCCCC2)CC1)[C@H]1Cc2ccccc2CN1 |
| 480 nM | 48% | 16 nM | 150 nM | 39% | 82% | 1100 nM | 520 nM | 980 nM | 23% | 4.8 nM | 880 nM | O=C(N[C@H](Cc1ccc(Cl)cc1)C(=O)N1CCC(CN2CCNC2=O)(C2CCCCC2)CC1)[C@H]1Cc2ccccc2CN1 |
| 280 nM | 48% | 5.8 nM | 180 nM | 56% | 76% | 2000 nM | 460 nM | 1300 nM | 11% | 4 nM |  | O=C(N[C@H](Cc1ccc(Cl)cc1)C(=O)N1CCC(CN2CCOC2=O)(C2CCCCC2)CC1)[C@H]1Cc2ccccc2CN1 |
| 800 nM | 48% | 5.6 nM | 200 nM | 39% | 86% | 1300 nM | 380 nM | 1500 nM | 23% | 2.1 nM | 590 nM | CC(C)N(CC1(C2CCCCC2)CCN(C(=O)[C@@H](Cc2ccc(Cl)cc2)NC(=O)[C@H]2Cc3ccccc3CN2)CC1)S(C)(=O)=O |
| 3600 nM | 51% | 14 nM | 630 nM | 26% | 95% | 1100 nM | 630 nM | 970 nM | 37% | 8.1 nM | 550 nM | CCOC(=O)N(CC1(C2CCCCC2)CCN(C(=O)[C@@H](Cc2ccc(Cl)cc2)NC(=O)[C@H]2Cc3ccccc3CN2)CC1)C(C)C |
| 660 nM | 41% | 5.3 nM | 170 nM | 41% | 67% | 1300 nM | 310 nM | 680 nM | 19% | 0.91 nM | 540 nM | O=C(N[C@H](Cc1ccc(Cl)cc1)C(=O)N1CCC(CN2CCCS2(=O)=O)(C2CCCCC2)CC1)[C@H]1Cc2ccccc2CN1 |
